Assay results from patent US8754226B2, “Piperidinyl-substituted lactams as GPR119 modulators” (Array BioPharma Inc., priority 2010, dated 2014).

System: modified version of the GPR119 receptor (94% identity to human receptor)
Experiment: cAMP production assay (LANCE cAMP kit, TR-FRET) in HEK-293 cells
Type: cell-based
Conditions: for cAMP production in HEK-293 cells: HEK-293 cells stably expressing modified GPR119, test compounds 0.2 nM to 10 μM, one-hour incubation at ambient temperature; for Fold over baseline: increase in cAMP relative to basal levels, agonist activity if 1.5-fold or greater
Protocol: The assay utilized HEK-293 cells that stably express a modified version of the GPR119 receptor (94% identity to human receptor), under the control of a CMV promoter containing a tet-on element for tetracycline-inducible expression. GPR119 agonist-induced cyclic AMP (cAMP) production was measured in this cell line using the LANCE cAMP kit (Perkin Elmer, Waltham, Mass.). To generate a working stock of cells for the assay, cells were treated overnight with 1 μg/mL doxycycline at 37° C. in the presence of 5% CO2 to induce receptor expression. Cells were then harvested by enzymatic dissociation with 0.05% trypsin, resuspended in freezing medium (DMEM growth medium with 10% each of fetal bovine serum and DMSO), aliquoted and frozen at −80° C. On the day of the assay, frozen cells were thawed, washed 1× in PBS and resuspended in Hank's buffered salt solution (HBSS) containing 5 mM HEPES, 0.1% BSA and Alexa Fluor 647-conjugated anti-cAMP antibody (diluted 1:100). The cell suspension was then transferred to a Proxiplate Plus white 384-well assay plate (Perkin-Elmer) at 2000 cells/well. Test compounds at final concentrations ranging from 0.2 nM to 10 μM were added to the assay plate, followed by a one-hour incubation at ambient temperature (volume=10 μL/well). DMSO concentration was held constant at 0.5%. After incubation with test compounds, 10 μL of a detergent buffer containing a biotinylated cAMP/Europium-conjugated streptavidin complex (Europium-labeled cAMP tracer) were added to each well on the assay plate, followed by a 2-hour incubation at ambient temperature. During this incubation cAMP released from lysed cells competes with the Europium-labeled cAMP tracer for binding to the Alexa Fluor 647-conjugated antibody. […] Cellular cAMP levels were then determined by interpolation of raw signal data using a cAMP standard curve. Compounds were determined to have agonist activity if they stimulated a 1.5-fold or greater increase in cAMP relative to basal levels.

SMILES	cAMP production in HEK-293 cells	Fold over baseline
CS(=O)(=O)c1cc(F)c(N[C@H]2CCCN(C3CCN(c4ccc(Cl)nn4)CC3)C2=O)cc1F [Example 52, (S)-1′-(6-chloropyridazin-3-yl)-3-(2,5-difluoro-4-(methylsulfonyl)phenylamino)-[1,4′-bipiperidin]-2-one]	19.6 nmol	4.6
Cc1cc(N[C@H]2CCN(C3CCN(c4cnc(Cl)cn4)CC3)C2=O)cnc1S(C)(=O)=O (stereo in doubt) [Example 135, 1-(1-(5-chloropyrazin-2-yl)piperidin-4-yl)-3-(5-methyl-6-(methylsulfonyl)pyridin-3-ylamino)pyrrolidin-2-one]	31.0 nmol	6.6
CS(=O)(=O)c1ccc(N[C@H]2CCN(C3CCN(c4ncc(Br)cn4)CC3)C2=O)c(F)c1 [Example 7, (S)-1-(1-(5-bromopyrimidin-2-yl)piperidin-4-yl)-3-(2-fluoro-4-(methylsulfonyl)phenylamino)pyrrolidin-2-one]	7.7 nmol	2.4
CCc1cnc(N2CCC(N3CCC[C@H](Nc4cc(F)c(S(C)(=O)=O)cc4F)C3=O)CC2)nc1 [Example 45, (S)-3-(2,5-difluoro-4-(methylsulfonyl)phenylamino)-1′-(5-ethylpyrimidin-2-yl)-[1,4′-bipiperidin]-2-one]	13.3 nmol	2.3
CCc1cnc(N2CCC(N3CCC(Oc4ccc(-n5cnnn5)nc4)C3=O)CC2)nc1 (stereo not drawn) [Example 66, 3-(6-(1H-tetrazol-1-yl)pyridin-3-yloxy)-1-(1-(5-ethylpyrimidin-2-yl)piperidin-4-yl)pyrrolidin-2-one]	4.9 nmol	1.6
CS(=O)(=O)c1ccc(N[C@H]2CCN(C3CCN(c4cnc(Br)cn4)CC3)C2=O)c(F)c1 [Example 12, (S)-1-(1-(5-bromopyrazin-2-yl)piperidin-4-yl)-3-(2-fluoro-4-(methylsulfonyl)phenyl-amino)pyrrolidin-2-one]	23.4 nmol	3.8
CCc1cnc(N2CCC(N3CC[C@H](Nc4cc(C)c(S(C)(=O)=O)cc4F)C3=O)CC2)cn1 [Example 2, (S)-1-(1-(5-ethylpyrazin-2-yl)piperidin-4-yl)-3-(2-fluoro-5-methyl-4-(methylsulfonyl)phenylamino)pyrrolidin-2-one]	27.9 nmol	4.8
N#Cc1ccc(N[C@H]2CCN(C3CCN(c4ncc(C(F)(F)F)cc4Cl)CC3)C2=O)nn1 [Example 150, (S)-6-(1-(1-(3-chloro-5-(trifluoromethyl)pyridin-2-yl)piperidin-4-yl)-2-oxopyrrolidin-3-ylamino)pyridazine-3-carbonitrile]	17.1 nmol	3.4
CS(=O)(=O)c1cc(F)c(N[C@H]2CCCN(C3CCN(c4ncc(C#N)cn4)CC3)C2=O)cc1F [Example 51, (S)-2-(3-(2,5-difluoro-4-(methylsulfonyl)phenylamino)-2-oxo-[1,4′-bipiperidin]-1′-yl)pyrimidine-5-carbonitrile]	8.8 nmol	2.7
CS(=O)(=O)c1cc(F)c(N[C@H]2CCN(C3CCN(c4ccc(C(F)(F)F)cn4)CC3)C2=O)c(F)c1 [Example 101, (S)-3-(2,6-difluoro-4-(methylsulfonyl)phenylamino)-1-(1-(5-(trifluoromethyl)pyridin-2-yl)piperidin-4-yl)pyrrolidin-2-one]	6.6 nmol	2.0
O=C1[C@@H](Oc2ccc3[nH]ncc3c2)CCN1C1CCN(c2cnc(Cl)cn2)CC1 [Example 74, (S)-3-(1H-indazol-5-yloxy)-1-(1-(5-chloropyrazin-2-yl)piperidin-4-yl)pyrrolidin-2-one]	8.6 nmol	2.2
CS(=O)(=O)c1ccc(N[C@H]2CCN(C3CCN(c4ncc(C(F)(F)F)cc4Cl)CC3)C2=O)c(F)c1 [Example 102, (S)-1-(1-(3-chloro-5-(trifluoromethyl)pyridin-2-yl)piperidin-4-yl)-3-(2-fluoro-4-(methylsulfonyl)phenylamino) pyrrolidin-2-one]	15.5 nmol	3.4
CS(=O)(=O)c1ccc(N[C@H]2CCN(C3CCN(c4ncc(C#N)cn4)CC3)C2=O)c(F)c1 [Example 8, (S)-2-(4-(3-(2-fluoro-4-(methylsulfonyl)phenylamino)-2-oxopyrrolidin-1-yl)piperidin-1-yl)pyrimidine-5-carbonitrile]	8.6 nmol	2.5
CS(=O)(=O)c1cc(F)c(N[C@H]2CCN(C3CCN(c4cnc(Cl)cn4)CC3)C2=O)cc1F [Example 3, (S)-1-(1-(5-chloropyrazin-2-yl)piperidin-4-yl)-3-(2,5-difluoro-4-(methylsulfonyl)phenylamino)pyrrolidin-2-one]	23.2 nmol	5.0
CCc1ccc(N2CCC(N3CCC(Nc4ccc(S(C)(=O)=O)cc4F)C3=O)CC2)nc1 (stereo not drawn) [Example 24, 1-(1-(5-ethylpyridin-2-yl)piperidin-4-yl)-3-(2-fluoro-4-(methylsulfonyl)phenylamino)pyrrolidin-2-one]	24.8 nmol	2.9
CS(=O)(=O)c1cc(F)c(N[C@H]2CCCN(C3CCN(c4cnc(Cl)cn4)CC3)C2=O)cc1F [Example 57, (S)-1′-(5-chloropyrazin-2-yl)-3-(2,5-difluoro-4-(methylsulfonyl)phenylamino)-[1,4′-bipiperidin]-2-one]	22.8 nmol	3.3
CS(=O)(=O)c1cc(F)c(N[C@H]2CCN(C3CCN(c4ccc(C(F)(F)F)cn4)CC3)C2=O)c(F)c1 [Example 105, (S)-3-(2,6-difluoro-4-(methylsulfonyl)phenyl-amino)-1-(1-(5-(trifluoromethyl)pyridin-2-yl)piperidin-4-yl)pyrrolidin-2-one]	11.5 nmol	1.6
CS(=O)(=O)c1cc(F)c(O[C@H]2CCN(C3CCN(c4ncc(Br)cn4)CC3)C2=O)cc1F [Example 90, (S)-1-(1-(5-bromopyrimidin-2-yl)piperidin-4-yl)-3-(2,5-difluoro-4-(methylsulfonyl)phenoxy)pyrrolidin-2-one]	11.7 nmol	2.7
Cc1nc(S(C)(=O)=O)ccc1N[C@H]1CCN(C2CCN(c3cnc(Cl)cn3)CC2)C1=O [Example 133, (S)-1-(1-(5-chloro-pyrazin-2-yl)piperidin-4-yl)-3-(2-methyl-6-(methylsulfonyl)pyridin-3-ylamino)pyrrolidin-2-one]	27.9 nmol	2.2
CS(=O)(=O)c1ccc(N[C@H]2CCN(C3CCN(c4ncc(C(F)(F)F)cc4F)CC3)C2=O)c(F)c1 [Example 114, (S)-3-(2-fluoro-4-(methylsulfonyl)phenyl-amino)-1-(1-(3-fluoro-5-(trifluoromethyl)pyridin-2-yl)piperidin-4-yl)pyrrolidin-2-one]	17.7 nmol	3.8
CCS(=O)(=O)c1ccc(N[C@H]2CCN(C3CCN(c4ncc(Cl)cc4C#N)CC3)C2=O)cn1 [Example 129, (S)-5-chloro-2-(4-(3-(6-(ethylsulfonyl)pyridin-3-ylamino)-2-oxopyrrolidin-1-yl)piperidin-1-yl)nicotinonitrile]	28.4 nmol	2.1
CCc1cnc(N2CCC(N3CC[C@H](Oc4ccc(-n5nnnc5C)cc4)C3=O)CC2)nc1 [Example 70, (S)-1-(1-(5-ethylpyrimidin-2-yl)piperidin-4-yl)-3-(4-(5-methyl-1H-tetrazol-1-yl)phenoxy)pyrrolidin-2-one]	6.1 nmol	1.8
CS(=O)(=O)c1ccc(N[C@H]2CCN(C3CCN(c4cnc(Cl)cn4)CC3)C2=O)c(F)c1 [Example 4, (S)-1-(1-(5-chloropyrazin-2-yl)piperidin-4-yl)-3-(2-fluoro-4-(methylsulfonyl)phenylamino)pyrrolidin-2-one]	27.3 nmol	4.1
CS(=O)(=O)c1cc(F)c(N[C@H]2CCCN(C3CCN(c4ncc(Cl)cn4)CC3)C2=O)cc1F [Example 50, (S)-1′-(5-chloropyrimidin-2-yl)-3-(2,5-difluoro-4-(methylsulfonyl)phenylamino)-[1,4′-bipiperidin]-2-one]	11.4 nmol	2.3
